Assay results: patent US20230303549A1, “SUBSTITUTED HETEROARYLOXYPYRIDINES, THE SALTS THEREOF AND THEIR USE AS HERBICIDAL AGENTS” (Bayer Aktiengesellschaft, priority 2020, published 2023)

What was measured:
Format in all cases: in vivo
[1] = system: Amaranthus retroflexus (AMARE); assay: Post-emergence herbicidal efficacy at 320 g/ha, greenhouse pot test; details: visual rating vs untreated control after about 3 weeks
Method in brief: (§1)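 Applied onto green plant parts as suspension or emulsion at a 600 L/ha water rate, containing 0.5% additive. Potted weeds in sandy loam were treated at one leaf and assessed visually versus controls about three weeks later.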

Poa annua (POAAN) [2] = assay: as above; details: visual rating vs untreated control after about 3 weeks
Method in brief: as §1

[3] = system: Digitaria sanguinalis (DIGSA); assay: as above; details: visual rating vs untreated control after about 3 weeks
Method in brief: as §1

Bassia scoparia (KCHSC) [4] = assay: as above; details: visual rating vs untreated control after about 3 weeks
Method in brief: as §1

Stellaria media (STEME) [5] = assay: as above; details: visual rating vs untreated control after about 3 weeks
Method in brief: as §1

[6] = system: Abutilon theophrasti (ABUTH); assay: as above; details: visual rating vs untreated control after about 3 weeks
Method in brief: as §1

Veronica persica (VERPE) [7] = assay: as above; details: 320 g/ha, visual rating vs untreated control after about 3 weeks
Method in brief: as §1

Viola tricolor (VIOTR) [8] = assay: Post-emergence herbicidal efficacy at 80 g/ha, greenhouse pot test; details: visual rating vs untreated control after about 3 weeks
Protocol: (§2) Seeds of monocotyledonous and dicotyledonous weeds and crop plants were placed in sandy loam in plastic or organic planting pots, covered with soil and cultivated in a greenhouse under controlled growth conditions. 2 to 3 weeks after sowing, the test plants were treated at the one-leaf stage. The compounds of the invention, formulated in the form of wettable powders (WP) or as emulsion concentrates (EC), were then sprayed onto the green parts of the plants as aqueous suspension or emulsion with addition of 0.5% additive at a water application rate of 600 l/ha (converted). After the test plants had been kept in the greenhouse under optimum growth conditions for about 3 weeks, the activity of the preparations was rated visually in comparison to untreated controls. For example, 100% activity=the plants have died, 0% activity=like control plants. Tables B1 to B6 below show the effects of selected compounds of the general formula (I) according to Table 1 on various harmful plants and an application rate corresponding to 80 g/ha, which were obtained by the experimental procedure mentioned above.

[9] = system: Amaranthus retroflexus (AMARE); assay: as above; details: visual rating vs untreated control after about 3 weeks
Protocol: as §2

[10] = system: Polygonum convolvulus (POLCO); assay: as above; details: visual rating vs untreated control after about 3 weeks
Protocol: as §2

[11] = system: Alopecurus myosuroides (ALOMY); assay: as above; details: visual rating vs untreated control after about 3 weeks
Protocol: as §2

Veronica persica (VERPE) [12] = assay: as above; details: visual rating vs untreated control after about 3 weeks
Protocol: as §2

[13] = system: Echinochloa crus-galli (ECHCG); assay: Pre-emergence herbicide efficacy at 320 g/ha, greenhouse pot test; details: visual scoring vs untreated control after about 3 weeks
Method in brief: (§3)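 Seeds sown in sandy loam, covered; formulated compound (WP or EC, 0.5% additive) applied to soil surface at 600 L/ha water; pots kept in greenhouse under good growth conditions; visual % damage scored at about 3 weeks relative to untreated.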

Setaria viridis (SETVI) [14] = assay: as above; details: visual scoring vs untreated control after about 3 weeks
Method in brief: as §3

[15] = system: Amaranthus retroflexus (AMARE); assay: as above; details: visual scoring vs untreated control after about 3 weeks
Method in brief: as §3

Poa annua (POAAN) [16] = assay: as above; details: visual scoring vs untreated control after about 3 weeks
Method in brief: as §3

[17] = system: Alopecurus myosuroides (ALOMY); assay: as above; details: visual scoring vs untreated control after about 3 weeks
Method in brief: as §3

[18] = system: Digitaria sanguinalis (DIGSA); assay: as above; details: visual scoring vs untreated control after about 3 weeks
Method in brief: as §3

[19] = system: Matricaria inodora (MATIN); assay: as above; details: visual scoring vs untreated control after about 3 weeks
Method in brief: as §3

Bassia scoparia (KCHSC) [20] = assay: as above; details: 320 g/ha, visual scoring vs untreated control after about 3 weeks
Method in brief: as §3

Stellaria media (STEME) [21] = assay: as above; details: visual scoring vs untreated control after about 3 weeks
Method in brief: as §3

[22] = system: Abutilon theophrasti (ABUTH); assay: as above; details: visual scoring vs untreated control after about 3 weeks
Method in brief: as §3

Veronica persica (VERPE) [23] = assay: as above; details: visual scoring vs untreated control after about 3 weeks
Method in brief: as §3

Viola tricolor (VIOTR) [24] = assay: Pre-emergence herbicide efficacy at 80 g/ha, greenhouse pot test; details: visual scoring vs untreated control after about 3 weeks
Excerpt: (§4) Seeds of monocotyledonous and dicotyledonous weed plants and crop plants were placed in plastic or organic planting pots and covered with soil. The compounds of the invention, formulated in the form of wettable powders (WP) or as emulsion concentrates (EC), were then applied to the surface of the covering soil as aqueous suspension or emulsion with addition of 0.5% additive at a water application rate of […] (converted). After the treatment, the pots were placed in a greenhouse and kept under good growth conditions for the test plants. After about 3 weeks, the effect of the preparations was scored visually in comparison with untreated controls as percentages. For example, 100% activity=the plants have died, 0% activity=like control plants. Tables D1 to D12 below show the effects of selected compounds of the general formula (I) according to Table 1 on various harmful plants and an application rate corresponding to 80 g/ha, which were obtained by the experimental procedure mentioned above.

[25] = system: Amaranthus retroflexus (AMARE); assay: as above; details: visual scoring vs untreated control after about 3 weeks
Excerpt: as §4

[26] = system: Polygonum convolvulus (POLCO); assay: as above; details: visual scoring vs untreated control after about 3 weeks
Excerpt: as §4

[27] = system: Digitaria sanguinalis (DIGSA); assay: as above; details: visual scoring vs untreated control after about 3 weeks
Excerpt: as §4

[28] = system: Matricaria inodora (MATIN); assay: as above; details: visual scoring vs untreated control after about 3 weeks
Excerpt: as §4

Veronica persica (VERPE) [29] = assay: as above; details: visual scoring vs untreated control after about 3 weeks
Excerpt: as §4

[30] = system: Alopecurus myosuroides (ALOMY); assay: Post-emergence herbicidal efficacy at 320 g/ha, greenhouse pot test; details: visual rating vs untreated control after about 3 weeks
Method in brief: as §1

Setaria viridis (SETVI) [31] = assay: Pre-emergence herbicide efficacy at 80 g/ha, greenhouse pot test; details: visual scoring vs untreated control after about 3 weeks
Excerpt: as §4

[32] = system: Alopecurus myosuroides (ALOMY); assay: as above; details: visual scoring vs untreated control after about 3 weeks
Excerpt: as §4

[33] = system: Abutilon theophrasti (ABUTH); assay: as above; details: visual scoring vs untreated control after about 3 weeks
Excerpt: as §4

Structure (SMILES) | Post-emergence efficacy against Amaranthus retroflexus (AMARE) [1] [%] | Post-emergence efficacy against Digitaria sanguinalis (DIGSA) [3] [%] | Post-emergence efficacy against Bassia scoparia (KCHSC) (Bassia scoparia (KCHSC) [4]) [%] | Post-emergence action against Stellaria media (STEME) (Stellaria media (STEME) [5]) [%] | Post-emergence efficacy against Veronica persica (VERPE) (Veronica persica (VERPE) [7]) [%] | Post-emergence efficacy against Viola tricolor (VIOTR) (Viola tricolor (VIOTR) [8]) [%] | Post-emergence efficacy against Amaranthus retroflexus (AMARE) [9] [%] | Post-emergence efficacy against Alopecurus myosuroides (ALOMY) [11] [%] | Pre-emergence efficacy against Echinochloa crus-galli (ECHCG) [13] [%] | Pre-emergence efficacy against Setaria viridis (SETVI) (Setaria viridis (SETVI) [14]) [%] | Pre-emergence efficacy against Amaranthus retroflexus (AMARE) [15] [%] | Pre-emergence efficacy against Poa annua (POAAN) (Poa annua (POAAN) [16]) [%] | Pre-emergence efficacy against Alopecurus myosuroides (ALOMY) [17] [%] | Pre-emergence efficacy against Digitaria sanguinalis (DIGSA) [18] [%] | Pre-emergence efficacy against Matricaria inodora (MATIN) [19] [%] | Pre-emergence efficacy against Bassia scoparia (KCHSC) (Bassia scoparia (KCHSC) [20]) [%] | Pre-emergence efficacy against Stellaria media (STEME) (Stellaria media (STEME) [21]) [%] | Pre-emergence efficacy against Abutilon theophrasti (ABUTH) [22] [%] | Pre-emergence efficacy against Veronica persica (VERPE) (Veronica persica (VERPE) [23]) [%] | Pre-emergence efficacy against Viola tricolor (VIOTR) (Viola tricolor (VIOTR) [24]) [%] | further results
Cc1cc(C)c(-c2cc(C(F)F)on2)c(Oc2ncc(F)cn2)n1 [Example I-3] | 90 | 90 | 100 | 90 | 100 | 100 | 90 | 90 | 100 | 100 | 100 | 100 | 100 | 100 | 100 | 100 | 100 | 100 | 100 | 100 | Post-emergence efficacy against Poa annua (POAAN) (Poa annua (POAAN) [2]): 100%; Post-emergence efficacy against Abutilon theophrasti (ABUTH) [6]: 90%; Post-emergence efficacy against Polygonum convolvulus (POLCO) [10]: 100%; Post-emergence efficacy against Veronica persica (VERPE) (Veronica persica (VERPE) [12]): 80%; Pre-emergence efficacy against Amaranthus retroflexus (AMARE) [25]: 100%; Pre-emergence efficacy against Polygonum convolvulus (POLCO) [26]: 90%; Pre-emergence efficacy against Digitaria sanguinalis (DIGSA) [27]: 100%; Pre-emergence efficacy against Matricaria inodora (MATIN) [28]: 100%; Pre-emergence efficacy against Veronica persica (VERPE) (Veronica persica (VERPE) [29]): 80%
Cc1cc(C)c(-c2cc(C(F)Cl)no2)c(Oc2ncc(Cl)cn2)n1 (stereo not drawn) [Example I-5] | 100 | 90 | 90 | 90 | 100 | 80 | 100 | 80 | 90 | 100 | 100 | 100 | 100 | 100 | 100 | 100 | 100 | 100 | 90 | 90 | Post-emergence efficacy against Alopecurus myosuroides (ALOMY) [30]: 100%; Pre-emergence efficacy against Setaria viridis (SETVI) (Setaria viridis (SETVI) [31]): 90%; Pre-emergence efficacy against Amaranthus retroflexus (AMARE) [25]: 100%; Pre-emergence efficacy against Polygonum convolvulus (POLCO) [26]: 90%; Pre-emergence efficacy against Alopecurus myosuroides (ALOMY) [32]: 90%; Pre-emergence efficacy against Matricaria inodora (MATIN) [28]: 90%; Pre-emergence efficacy against Abutilon theophrasti (ABUTH) [33]: 90%; Pre-emergence efficacy against Veronica persica (VERPE) (Veronica persica (VERPE) [29]): 90%
